Test [1] deals with T1, Phospholipid hydroperoxide glutathione peroxidase GPX4 (Homo sapiens) (UniProt P36969).
T1 sequence (whole entry): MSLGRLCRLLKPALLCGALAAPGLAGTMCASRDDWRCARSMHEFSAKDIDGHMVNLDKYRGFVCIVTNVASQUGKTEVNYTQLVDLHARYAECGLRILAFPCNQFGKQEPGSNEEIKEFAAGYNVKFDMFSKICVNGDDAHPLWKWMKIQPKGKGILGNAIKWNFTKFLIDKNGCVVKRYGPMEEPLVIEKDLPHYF
In words: Binding affinity to GPX4 in human BXPC-3 cells at 0.2 uM incubated for 1 hr by SDS-PAGE analysis. The format is cell-based.

The target in test [2] is T1, Phospholipid hydroperoxide glutathione peroxidase GPX4 (Homo sapiens). As to the kind of experiment: Binding affinity to GPX4 in human PANC-1 cells at 0.2 uM incubated for 1 hr by SDS-PAGE analysis. Format: cell-based.

Structures are written as SMILES. Active and inactive are the calls of the source. The rule behind the calls is not given here.

Turning to `C#CCN(Cc1ccc(S(=O)(=O)N(C)C#C)cc1)c1ccc(-c2nc3ccccc3s2)cc1`, the result in test [1] and in test [2] was Active.
